In patent US20260027073A1, “USE OF SMALL-MOLECULE COMPOUND HAVING NAPHTHYLAMINE STRUCTURE” (HANGZHOU PHECDAMED CO., LTD., priority 2023, published 2026):
Values joined by “and” are separate entries in the source; they are usually repeats but may differ in a detail not shown here. Equal values may be shown once.

Tests used:
[1] = tested on: rats of adenine induced kidney injury model; test: Adenine-induced kidney injury; type: in vivo, SD rats
Description: Adenine-induced kidney injury is an animal model of chronic kidney injury. The model was prepared as follows: 1500 mg/kg of potassium oxonate and 50 mg/kg of adenine were ground and suspended in 0.5% carboxymethylcellulose sodium (CMC-Na) solution and gavaged once a day in a volume of 10 mL/kg for 180-200 g male SD rats, and an equal dose of 0.5% CMC-Na solution was gavaged for the sham group. After 1 week of modeling, serum creatinine (Cr) was measured weekly to determine whether the model was successful or not; in this experiment, there was a statistically significant difference in serum creatinine elevation on the 21st day of modeling compared with that of the sham group, at this time, administration in group was initiated, and the shock modeling with 1500 mg/kg of potassium oxonate and 50 mg/kg of adenine was continued daily along with the administration. The test was divided into three groups according to the serum creatinine level, sham operation group (sham group, without adenine modeling and vehicle treatment by oral gavage), control group (model control group, vehicle treatment by oral gavage), and 15 mg/kg group (15 mg/kg compound I-1 by oral gavage), and the dosage was once a day in the volume of 10 ml/kg for 21 consecutive days. […] At the end of the administration, blood was collected from the heart, and the blood was centrifuged at 12000 g for 10 minutes at 4° C. after standing at room temperature for 45 minutes, and the supernatant (serum) was extracted to measure the levels of creatinine and uric acid in the serum. After euthanasia of rats at endpoint of test, rats were dissected and kidneys were taken, of which 4 kidneys were fixed with 4% paraformaldehyde for 48 h, embedded in paraffin, sectioned, and HE stained, the specific staining operation was as described above. The left kidney tissue was taken and ground, and the inflammatory factors IL-10 and TNFα were detected by Elisa method.

[2] = In vitro liver microsomal stability test
Description: Ketanserin was selected as the reference compound. The specific method was as follows:
0.1 M K3PO4 (pH 7.4) buffer and 3×NADPH stock solution (6 mM, 5 mg/mL) were configured and preheated in a 37° C. water bath; configuration of the test compounds and the control compounds (spiking solution): adding 5 μL of the compound stock solution ([…]) into 95 μL of acetonitrile; configuration of 1.5 μM spiking solution in microsomes (0.75 mg/mL): adding 1.5 μL of spiking solution and 18.75 μL of liver microsomal solution (20 mg/mL) into 479.75 μL of K3PO4 buffer; adding 30 μL of spiking solution in microsomes into the multiwell plate, and incubating at 37° C. for 5 min; adding 15 μL of NADPH storage solution into each well to start to react, and timing; adding 150 μL of acetonitrile solution containing IS at 0 min, 5 min, 15 min, 30 min, and 45 min, respectively, stopping the reaction; oscillating for 10 min, and then centrifuging at 6,000 rpm for 15 min; taking 80 μL of supernatant from each well for LC/MS detection, and calculating T1/2.

[3] = tested on: Natural Aging POF model (NA-POF); test: Natural aging ovarian insufficiency (NA-POF); type: in vivo, C57BL/6J mice; conditions: for body weight / ovarian coefficient / ovarian weight: FIG. 71; for serum E2 levels: FIG. 73
Description: The Natural Aging POF model (NA-POF) simulates conditions of progressive ovarian degeneration. Female C57BL/6J mice of 9-10 months of age were purchased and raised to 12 months old, and then the mice were randomly divided into three groups, namely, the control group (Control, 0.5% CMC-Na by oral gavage, n=8), the TJ01-013-treated group (TJ01-013, 30 mg/kg TJ01-013 by oral gavage, n=8), the I-14-1 treatment group (I-14-1, 30 mg/kg I-14-1 by oral gavage, n=8), and were administered daily for 30 days. At the endpoint of the experiment, body weight, ovarian weight, ovarian organ coefficient, serum hormone E2 and FSH levels in mice were measured. The body weight and bilateral ovarian wet weight of each group of mice were weighed with an electronic balance and an analytical balance respectively, and the ovarian organ coefficient of each group of mice was calculated according to the body weight of the mice (g) and the wet weight (mg) of the bilateral ovaries. […] After the experiment reached the end point, orbital blood collection was carried out, and the blood was centrifuged at 12000 g for 10 min after standing still at room temperature for 45 min, and the supernatant (serum) was taken, and the levels of E2 and FSH in serum were detected by ELISA.

CUP model mice = test: Multiple sclerosis CUP model; type: in vivo, C57BL/6; conditions: for number of open arm entries (elevated cross maze) / walking distance (elevated cross maze) / open arm time (elevated cross maze) / number of crossing over the platform (water maze): 30 mg/kg oral gavage; for number of open arm entries (elevated cross maze): FIG. 86; for walking distance (elevated cross maze): FIG. 87; for open arm time (elevated cross maze): FIG. 88; for number of crossing over the platform (water maze): FIG. 89
Description: After one week of adaptive feeding in 7-8 weeks C57BL/6 female […], they were randomly divided into four groups according to their body weights: the normal control group (Control, 0.5% CMC-Na treatment by oral gavage, n=8), the model group (model, 0.5% CMC-Na treatment by oral gavage, n=8), TJ01-013 treatment group (TJ01-013, 30 mg/kg TJ01-013 by oral gavage, n=8), I-14-1 treatment group (I-14-1, oral gavage 30 mg/kg I-14-1, n=8). The normal control group was fed with the basal diet throughout for 12 weeks, and the model group, TJ01-013 treatment group, and I-14-1 treatment group were fed with 0.2% CUP diet throughout. All groups were administered 5 ml/kg in a volume of 5 ml/kg for a total of 12 weeks starting 6 weeks after modeling.
The elevated cross maze consisted of two open arms (35 cm×6 cm) and two closed arms (35 cm×6 cm×14 cm), with the middle area (6 cm×6 cm) and a height of 70 cm above the ground, and the mice were placed in the middle area facing the open arms, and were active for 5 min in a 50 cm×50 cm open field prior to the start of the test. During the test, the activity time, the activity distance and the number of open arm entries in the mice were counted. Each mouse was wiped with 75% alcohol on the maze after the test.
The mice were placed in a basin with a diameter of 70 cm and a height of 30 cm, and the water temperature was about 22-24° C. The basin was divided into four quadrants, and a platform with a diameter of 5 cm was placed in the target quadrant, which was placed 1 cm below the surface of the water. The mice were acclimatized for 1 day before the official test and learned for 4 days, during learning, the mice entered the water in the direction of facing the wall of the basin, and were given 60 s to search for the platform, or else were guided to learn for 30 s on the platform, and the time that the mice found the platform during learning was recorded. The platform was withdrawn on the day of the test, and the number of crossing over the platform after entering from the opposite quadrant of the target quadrant in mice was recorded to determine the spatial learning and memory ability of the mice.

| SMILES | body weight ([3]; 30 mg/kg daily 30 days) | ovarian coefficient ([3]; 30 mg/kg daily 30 days) | ovarian weight ([3]; 30 mg/kg daily 30 days) | serum E2 levels ([3]; 30 mg/kg daily 30 days) | number of open arm entries (elevated cross maze) (CUP model mice) | walking distance (elevated cross maze) (CUP model mice) | open arm time (elevated cross maze) (CUP model mice) | number of crossing over the platform (water maze) (CUP model mice) | other results |
| --- | --- | --- | --- | --- | --- | --- | --- | --- | --- |
| O=C(O)C[S+]([O-])c1cc(NS(=O)(=O)c2ccc(Br)cc2)c2ccccc2c1O (centres unmarked) [I-1] | no significant change | significantly elevated | significantly elevated | increased significantly | significantly reduced | reduced | significantly decreased | increased | body weight ([1]; 15 mg/kg oral gavage, 21 days, FIG. 9): no significant change; TNF-α level in kidney tissues ([1]; 15 mg/kg, 21 days, FIG. 12): significantly decreased; renal histopathology (HE staining) ([1]; 15 mg/kg, 21 days, FIG. 13): improved the histopathology of adenine-induced renal injury to some extent; serum urea nitrogen level ([1]; 15 mg/kg, 21 days, P<0.05, FIG. 11): significantly decreased; Serum creatinine decreased by ([1]; 15 mg/kg, after 21 days, P<0.05, FIG. 10): 20.7%; Renal lesion (number of kidneys, n = 4) ([1]; Degree of lesion + (mild lesions), 15 mg/kg): 1/4 and 1; Renal lesion (number of kidneys, n = 4) ([1]; Degree of lesion ++ (moderate lesions), 15 mg/kg): 3/4 and 3; Renal lesion (number of kidneys, n = 4) ([1]; Degree of lesion +++ (severe lesions), 15 mg/kg): 0; Renal lesion (number of kidneys, n = 4) ([1]; Degree of lesion ± (slight lesions), 15 mg/kg): 0; Renal lesion (number of kidneys, n = 4) ([1]; Degree of lesion − (no lesions), 15 mg/kg): 0; liver microsomal stability (elimination half-life T1/2) ([2]; microsomes): superior liver microsomal stability; serum FSH level ([3]; 30 mg/kg daily 30 days, FIG. 72): decreased significantly; improvement of ovarian function, TJ0113 compared with I-14-1 ([3]; both 30 mg/kg): more effective; treatment of TJ01-013 compared with I-14-1 (CUP model mice; per readout of the block): significantly better |
| O=C(O)C[S+]([O-])c1cc(NS(=O)(=O)c2ccc(C(F)(F)F)cc2)c2ccccc2c1O (centres unmarked) [I-14-1] | no significant change | rising trend | significantly elevated | increased significantly | significantly reduced | reduced | significantly decreased | increased |  |
| O=C(O)CSc1cc(NS(=O)(=O)c2ccc(Br)cc2)c2ccccc2c1O [UMI-77, reference compound] |  |  |  |  |  |  |  |  | treatment of adenine-induced renal injury compared with I-1 ([1]; UMI-77 vs I-1): less effective; liver microsomal stability (elimination half-life T1/2) ([2]; in vitro mouse or human liver microsomal environment, FIG. 19): unstable |
